The target in this assay is T1, human recombinant IL-17A (Homo sapiens, UniProt Q16552).
T1 construct: purchased R&D Systems 7955-IL/CF
T1 sequence (Q16552 24-155): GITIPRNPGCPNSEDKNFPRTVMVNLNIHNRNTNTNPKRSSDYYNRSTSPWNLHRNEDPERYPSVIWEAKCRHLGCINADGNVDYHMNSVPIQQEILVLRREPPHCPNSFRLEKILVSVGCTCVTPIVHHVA
Description: IL-17A AlphaLISA assay (block binding of IL-17A to its receptor IL-17RA). The note with it: read-out: AlphaLISA pIC50 (converted). The gist of the method:
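Compounds pre-incubated 24 h at RT (30 min where flagged) with human IL-17A (7.5 nM stock) before IL-17RA/Fc (5 nM stock), 90 min. Read by AlphaLISA via anti-Fc acceptor and biotin anti-IL-17A/streptavidin donor beads, 680/615 nm. 4-parameter fit; DMSO and 6 μM reference inhibitor as controls; pIC50.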
Background: Alpha assays give light when donor and acceptor beads are brought close together.

[1] abbreviates: compounds pre-incubated with the IL-17A for 30 min (indicated by * in Table A).
The mark [2] stands for this setting: compounds pre-incubated with the IL-17A for 24 h at room temperature.

Where two headings read alike, the source gives them in different places.

With `Cc1noc(C)c1-c1cnc(NC(=O)[C@@H](NC(=O)c2ccnn2C)C2CCCCCC2)cn1` [Example 158, (S)—N-(1-cycloheptyl-2-((5-(3,5-dimethylisoxazol-4-yl)pyrazin-2-yl)amino)-2-oxoethyl)-1-methyl-1H-pyrazole-5-carboxamide], the IC50 under setting [1] was 0.631 µM.

For the molecule `COCc1nocc1C(=O)N[C@H](C(=O)Nc1ccc(-c2c(C)cnn2C)cn1)C1CCCCCC1` [Example 137, (S)—N-(1-Cycloheptyl-2-((5-(1,4-dimethyl-1H-pyrazol-5-yl)pyridin-2-yl)amino)-2-oxoethyl)-3-(methoxymethyl)isoxazole-4-carboxamide], the IC50 under setting [1] is 0.2 µM. Still for that read-out and setting: for `Cc1cnn(C)c1-c1ccc(NC(=O)[C@@H](NC(=O)c2conc2C(C)C)[C@H]2CC[C@H](C)CC2)nc1` [Example 191, N—((S)-2-((5-(1,4-dimethyl-1H-pyrazol-5-yl)pyridin-2-yl)amino)-1-((1r,4S)-4-methylcyclohexyl)-2-oxoethyl)-3-isopropylisoxazole-4-carboxamide] the value was 0.0398 µM. The same measure, in the same setting: for `CCn1nccc1C(=O)N[C@H](C(=O)Nc1ccc(-c2c(C)nnn2C)cn1)[C@H]1CC[C@H](C)CC1` [Example 159, N—((S)-2-((5-(1,4-dimethyl-1H-1,2,3-triazol-5-yl)pyridin-2-yl)amino)-1-((1r,4S)-4-methylcyclohexyl)-2-oxoethyl)-1-ethyl-1H-pyrazole-5-carboxamide] the value was 0.1 µM; for `Cc1cnn(C)c1-c1ccc(NC(=O)[C@@H](NC(=O)c2conc2C(F)(F)F)[C@H]2CC[C@H](C)CC2)nc1` [Example 194, N—((S)-2-((5-(1,4-dimethyl-1H-pyrazol-5-yl)pyridin-2-yl)amino)-1-((1r,4S)-4-methylcyclohexyl)-2-oxoethyl)-3-(trifluoromethyl)isoxazole-4-carboxamide], 0.158 µM; for `Cc1noc(C)c1-c1ccc(NC(=O)[C@@H](NC(=O)c2ccnn2C)C2CCCCC2)nc1` [Example 129, (S)—N-(1-Cyclohexyl-2-((5-(3,5-dimethylisoxazol-4-yl)pyridin-2-yl)amino)-2-oxoethyl)-1-methyl-1H-pyrazole-5-carboxamide], 0.316 µM. In the case of `Cc1[nH]ncc1-c1ccc(NC(=O)[C@@H](NC(=O)c2ccnn2C)C(c2ccccc2)c2ccccc2)cc1` [Example 74, (S)-1-methyl-N-(1-((4-(5-methyl-1H-pyrazol-4-yl)phenyl)amino)-1-oxo-3,3-diphenylpropan-2-yl)-1H-pyrazole-5-carboxamide], the IC50 under setting [2] was 0.0316 µM. On to `Cc1c(-c2ccc(NC(=O)[C@@H](NC(=O)c3ccnn3C)C(c3ccccc3)c3ccccc3)cc2)ccc(=O)n1C` [Example 13, (S)—N-(1-((4-(1,2-dimethyl-6-oxo-1,6-dihydropyridin-3-yl)phenyl)amino)-1-oxo-3,3-diphenylpropan-2-yl)-1-methyl-1H-pyrazole-5-carboxamide], for which the IC50 under setting [2] is 0.00794 µM. In the case of `CCn1nccc1C(=O)N[C@H](C(=O)Nc1ccc(-c2c(C)noc2C)cn1)[C@H]1CC[C@H](C)CC1` [Example 109, N—((S)-2-((5-(3,5-Dimethylisoxazol-4-yl)pyridin-2-yl)amino)-1-((1r,4S)-4-methylcyclohexyl)-2-oxoethyl)-1-ethyl-1H-pyrazole-5-carboxamide], the IC50 under setting [1] is 0.1 µM. Still for that read-out and setting: for `Cc1noc(C)c1-c1ccc(NC(=O)[C@@H](NC(=O)c2ccnn2C(C)C)C2CCCCC2)nc1` [Example 108, (S)—N-(1-Cyclohexyl-2-((5-(3,5-dimethylisoxazol-4-yl)pyridin-2-yl)amino)-2-oxoethyl)-1-isopropyl-1H-pyrazole-5-carboxamide] the value was 0.126 µM; for `Cc1cc(=O)n(C)c(C)c1-c1ccc(NC(=O)[C@@H](NC(=O)c2ccnn2C)C2CCCCCC2)nc1` [Example 214, (S)—N-(1-cycloheptyl-2-oxo-2-((1′,2′,4′-trimethyl-6′-oxo-1′,6′-dihydro-[3,3′-bipyridin]-6-yl)amino)ethyl)-1-methyl-1H-pyrazole-5-carboxamide], 0.158 µM. Take `Cn1nccc1C(=O)N[C@H](C(=O)Nc1ccc(-c2cc(=O)[nH]cn2)c(F)c1)C(c1ccccc1)c1ccccc1` [Example 80, (S)—N-(1-((3-fluoro-4-(6-oxo-1,6-dihydropyrimidin-4-yl)phenyl)amino)-1-oxo-3,3-diphenylpropan-2-yl)-1-methyl-1H-pyrazole-5-carboxamide]: the IC50 under setting [2] is 0.316 µM. Same read-out and setting: for `Cc1cncc(C)c1-c1ccc(NC(=O)[C@@H](NC(=O)c2ccnn2C)C(c2ccccc2)c2ccccc2)cc1` [Example 6, (S)—N-(1-((4-(3,5-dimethylpyridin-4-yl)phenyl)amino)-1-oxo-3,3-diphenylpropan-2-yl)-1-methyl-1H-pyrazole-5-carboxamide] the value was 0.0126 µM; for `Cn1nccc1C(=O)N[C@H](C(=O)Nc1ccc(-c2ccc(=O)[nH]n2)c(F)c1)C(c1ccccc1)c1ccccc1` [Example 58, (S)—N-(1-((3-fluoro-4-(6-oxo-1,6-dihydropyridazin-3-yl)phenyl)amino)-1-oxo-3,3-diphenylpropan-2-yl)-1-methyl-1H-pyrazole-5-carboxamide], 0.316 µM. Turning to `Cc1noc(C)c1-c1ccc(NC(=O)C(NC(=O)c2ccnn2C)C2CCCCCCC2)nc1` (centres unmarked) [Example 105, N-(1-Cyclooctyl-2-((5-(3,5-dimethylisoxazol-4-yl)pyridin-2-yl)amino)-2-oxoethyl)-1-methyl-1H-pyrazole-5-carboxamide], the IC50 under setting [1] is 0.158 µM.

With `Cc1cnn(C)c1-c1ccc(NC(=O)[C@@H](NC(=O)c2cnnn2C)[C@H]2CC[C@H](C)CC2)nc1` [Example 167, N—((S)-2-((5-(1,4-dimethyl-1H-pyrazol-5-yl)pyridin-2-yl)amino)-1-((1r,4S)-4-methylcyclohexyl)-2-oxoethyl)-1-methyl-1H-1,2,3-triazole-5-carboxamide], the IC50 under setting [1] was 0.316 µM. Regarding `Cn1nccc1C(=O)N[C@H](C(=O)Nc1ccc(-c2cccc3nccn23)cc1)[C@H]1CC[C@H](C)CC1` [Example 88, N—((S)-2-((4-(Imidazo[1,2-a]pyridin-5-yl)phenyl)amino)-1-((1r,4S)-4-methylcyclohexyl)-2-oxoethyl)-1-methyl-1H-pyrazole-5-carboxamide], the IC50 under setting [2] was 0.398 µM.

For `Cc1nocc1C(=O)N[C@H](C(=O)Nc1ccc(-c2c(C)noc2C)cn1)C1CCCCC1` [Example 121, (S)—N-(1-Cyclohexyl-2-((5-(3,5-dimethylisoxazol-4-yl)pyridin-2-yl)amino)-2-oxoethyl)-3-methylisoxazole-4-carboxamide], under setting [1], the IC50 is 0.251 µM. Regarding `CCn1nccc1C(=O)N[C@H](C(=O)Nc1ccc(-c2ccc(=O)[nH]n2)c(F)c1)C(c1ccccc1)c1ccccc1` [Example 34, (S)-1-ethyl-N-(1-((3-fluoro-4-(6-oxo-1,6-dihydropyridazin-3-yl)phenyl)amino)-1-oxo-3,3-diphenylpropan-2-yl)-1H-pyrazole-5-carboxamide], under setting [2], the IC50 was 0.2 µM. In the case of `Cc1noc(C)c1-c1cnc(NC(=O)[C@@H](NC(=O)c2ccnn2C)C2CCCCCC2)c(F)c1` [Example 162, (S)—N-(1-cycloheptyl-2-((5-(3,5-dimethylisoxazol-4-yl)-3-fluoropyridin-2-yl)amino)-2-oxoethyl)-1-methyl-1H-pyrazole-5-carboxamide], under setting [1], the IC50 is 0.2 µM.

`Cc1cnn(C)c1-c1ccc(NC(=O)[C@@H](NC(=O)c2cnnn2C)C2CCCCCC2)nc1` [Example 133, (S)—N-(1-Cycloheptyl-2-((5-(1,4-dimethyl-1H-pyrazol-5-yl)pyridin-2-yl)amino)-2-oxoethyl)-1-methyl-1H-1,2,3-triazole-5-carboxamide]: under setting [1], the IC50 is 0.251 µM. Same read-out and setting: for `Cc1cncc(C)c1-c1ccc(NC(=O)C(NC(=O)c2ccnn2C)C2CCCCCCC2)cc1` (centres unmarked) [Example 103, N-(1-Cyclooctyl-2-((4-(3,5-dimethylpyridin-4-yl)phenyl)amino)-2-oxoethyl)-1-methyl-1H-pyrazole-5-carboxamide] the value was 0.126 µM; for `Cc1nocc1C(=O)N[C@H](C(=O)Nc1ccc(-c2c(C)noc2C)cn1)[C@H]1CC[C@H](C)CC1` [Example 112, N—((S)-2-((5-(3,5-dimethylisoxazol-4-yl)pyridin-2-yl)amino)-1-((1r,4S)-4-methylcyclohexyl)-2-oxoethyl)-3-methylisoxazole-4-carboxamide], 0.1 µM.

With `Cn1nccc1C(=O)N[C@H](C(=O)Nc1ccc(-c2ccncc2CC(=O)N2CCCC2)cc1)[C@H]1CC[C@H](C)CC1` [Example 86, 1-Methyl-N—((S)-1-((1r,4S)-4-methylcyclohexyl)-2-oxo-2-((4-(3-(2-oxo-2-(pyrrolidin-1-yl)ethyl)pyridin-4-yl)phenyl)amino)ethyl)-1H-pyrazole-5-carboxamide], the IC50 under setting [2] was 0.251 µM. Turning to `Cc1cc(NC(=O)[C@@H](NC(=O)c2ccnn2C)C(c2ccccc2)c2ccccc2)ccc1-c1ccncc1` [Example 45, (S)-1-methyl-N-(1-((3-methyl-4-(pyridin-4-yl)phenyl)amino)-1-oxo-3,3-diphenylpropan-2-yl)-1H-pyrazole-5-carboxamide], the IC50 under setting [2] was 0.1 µM. `Cc1cc(=O)n(C)c(C)c1-c1ccc(NC(=O)[C@@H](NC(=O)c2ccnn2C)[C@H]2CC[C@H](C)CC2)nc1` [Example 215, 1-methyl-N—((S)-1-((1r,4S)-4-methylcyclohexyl)-2-oxo-2-((1′,2′,4′-trimethyl-6′-oxo-1′,6′-dihydro-[3,3′-bipyridin]-6-yl)amino)ethyl)-1H-pyrazole-5-carboxamide]: under setting [1], the IC50 was 0.126 µM.

Source of the values: patent US20230227427A1, “IL-17A MODULATORS” (SANOFI, priority 2010, published 2023).
